According to paper doi:10.1101/2025.10.06.680748v1 (bioRxiv, 2025):

molecular target: T1, Fibroblast Activation Protein Alpha (FAP) (Homo sapiens, UniProt Q12884); assay: FAP substrate kinetics assay with naïve substrate library; format: biochemical; details: from the observed C-terminal product
T1 sequence (Q12884 27-760 limits assumed): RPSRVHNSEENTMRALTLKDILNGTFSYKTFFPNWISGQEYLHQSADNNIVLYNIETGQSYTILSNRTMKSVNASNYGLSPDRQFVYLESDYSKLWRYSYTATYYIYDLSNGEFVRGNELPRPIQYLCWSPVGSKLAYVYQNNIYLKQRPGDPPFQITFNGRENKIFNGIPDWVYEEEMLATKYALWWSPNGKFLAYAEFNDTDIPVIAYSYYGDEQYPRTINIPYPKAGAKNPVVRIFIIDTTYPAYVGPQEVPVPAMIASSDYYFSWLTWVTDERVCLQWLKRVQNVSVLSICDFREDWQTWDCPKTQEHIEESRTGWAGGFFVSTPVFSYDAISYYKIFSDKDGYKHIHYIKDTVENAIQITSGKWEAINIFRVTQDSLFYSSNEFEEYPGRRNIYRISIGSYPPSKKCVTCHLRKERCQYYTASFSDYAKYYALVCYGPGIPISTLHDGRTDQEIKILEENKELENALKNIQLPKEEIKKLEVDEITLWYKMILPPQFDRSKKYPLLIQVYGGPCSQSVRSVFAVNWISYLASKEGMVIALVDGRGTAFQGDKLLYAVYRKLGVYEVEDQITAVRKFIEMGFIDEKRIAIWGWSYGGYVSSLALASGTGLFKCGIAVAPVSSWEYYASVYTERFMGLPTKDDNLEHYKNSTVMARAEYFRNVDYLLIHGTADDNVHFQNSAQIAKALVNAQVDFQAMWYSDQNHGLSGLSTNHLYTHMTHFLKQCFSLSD

Sequence | Dipeptidyl? (substrate product pair cleaved by FAP as dipeptidyl exopeptidase)
GPGVLSEKHAGIEGR [SL11B_022414] | Yes
GPIMPATVSGGIEGR [SL11B_020678] | Yes
GSFHVPETHSWLVPR [SL11C_008744] | No
GSNNGQFNMVPLVPR [SL11C_037297] | Yes
